Structures are written as SMILES.

In general, Ki refers to the dissociation constant of the complex between target and ligand, obtained from inhibition or displacement. A low value points to a stronger hold on the target.

Some targets named below: Carbonic anhydrase 1 (Homo sapiens, UniProt P00915); Carbonic anhydrase 9 (Homo sapiens, UniProt Q16790); Carbonic anhydrase 12 (Homo sapiens, UniProt O43570).

Chain of Carbonic anhydrase 12 (O43570 whole entry): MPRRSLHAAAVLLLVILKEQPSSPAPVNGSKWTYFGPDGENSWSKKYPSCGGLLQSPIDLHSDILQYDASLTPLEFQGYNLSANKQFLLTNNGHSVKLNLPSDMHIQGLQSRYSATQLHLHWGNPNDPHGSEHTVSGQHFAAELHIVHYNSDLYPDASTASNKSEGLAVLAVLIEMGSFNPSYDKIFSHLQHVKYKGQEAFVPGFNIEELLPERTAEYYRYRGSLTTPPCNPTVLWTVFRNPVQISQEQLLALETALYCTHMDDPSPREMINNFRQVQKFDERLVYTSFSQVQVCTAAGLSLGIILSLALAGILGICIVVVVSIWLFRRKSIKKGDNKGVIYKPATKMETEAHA
Chain of Carbonic anhydrase 1 (P00915 whole entry): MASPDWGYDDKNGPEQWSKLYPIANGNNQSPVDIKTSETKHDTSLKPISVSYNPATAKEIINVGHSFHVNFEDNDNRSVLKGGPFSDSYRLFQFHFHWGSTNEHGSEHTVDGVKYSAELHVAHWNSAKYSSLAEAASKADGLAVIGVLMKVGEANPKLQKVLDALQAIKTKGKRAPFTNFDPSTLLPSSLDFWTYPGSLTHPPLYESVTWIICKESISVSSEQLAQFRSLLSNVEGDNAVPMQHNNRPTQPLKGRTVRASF
Description for Carbonic anhydrase 12: Inhibition of recombinant human carbonic anhydrase 12 expressed in Escherichia coli L21-GOLD (DE3) incubated for 10 mins prior to testing by stopped-flow CO2 hydration assay
Description for Carbonic anhydrase 9: Inhibition of recombinant human carbonic anhydrase 9 expressed in Escherichia coli L21-GOLD (DE3) incubated for 10 mins prior to testing by stopped-flow CO2 hydration assay

In the case of `O=C1NS(=O)(=O)c2ccccc21` [SACCHARIN], the Ki at Carbonic anhydrase 1 is over 20000 nM; at Carbonic anhydrase 9, 100 nM; at Carbonic anhydrase 12 it was 650 nM.
